± gives the expanded uncertainty stated by the source.
What was measured:
[1] = xn = mol fraction of the nth substance listed; settings: 101 kPa, Liquid, x1 = 1
[2] = 101 kPa, Liquid

Structure (SMILES) | kinematic viscosity ([1]; 298.15 K) [m2/s] | mass density ([1]; 298.15 K) [kg/m3] | kinematic viscosity ([1]; 303.15 K) [m2/s] | mass density ([1]; 303.15 K) [kg/m3] | kinematic viscosity ([1]; 308.15 K) [m2/s] | mass density ([1]; 308.15 K) [kg/m3] | kinematic viscosity ([1]; 313.15 K) [m2/s] | mass density ([1]; 313.15 K) [kg/m3] | kinematic viscosity ([1]; 318.15 K) [m2/s] | mass density ([1]; 318.15 K) [kg/m3] | kinematic viscosity ([2]; 298.15 K) [m2/s] | mass density ([2]; 298.15 K) [kg/m3] | kinematic viscosity ([2]; 303.15 K) [m2/s] | mass density ([2]; 303.15 K) [kg/m3] | kinematic viscosity ([2]; 308.15 K) [m2/s] | mass density ([2]; 308.15 K) [kg/m3] | kinematic viscosity ([2]; 313.15 K) [m2/s] | mass density ([2]; 313.15 K) [kg/m3] | kinematic viscosity ([2]; 318.15 K) [m2/s] | mass density ([2]; 318.15 K) [kg/m3]
CN(C)C=O [dimethylformamide] + OCCOCCO | 8.15e-07 ± 5.2e-08 | 943.9 ± 2.4 | 7.6e-07 ± 4.9e-08 | 939.6 ± 2.5 | 7.22e-07 ± 4.7e-08 | 934.2 ± 2.6 | 6.75e-07 ± 4.4e-08 | 929.9 ± 2.7 | 6.38e-07 ± 4.2e-08 | 924.7 ± 2.8 |  |  |  |  |  |  |  |  |  | 
CN(C)C=O [dimethylformamide] |  |  |  |  |  |  |  |  |  |  | 8.15e-07 ± 5.2e-08 | 943.9 ± 2.4 | 7.6e-07 ± 4.9e-08 | 939.6 ± 2.5 | 7.22e-07 ± 4.7e-08 | 934.2 ± 2.6 | 6.75e-07 ± 4.4e-08 | 929.9 ± 2.7 | 6.38e-07 ± 4.2e-08 | 924.7 ± 2.8
OCCOCCO [diethylene glycol] |  |  |  |  |  |  |  |  |  |  | 2.76e-05 ± 1.2e-06 | 1113 ± 2.9 | 2.13e-05 ± 9e-07 | 1109.2 ± 3 | 1.68e-05 ± 7e-07 | 1106.1 ± 3.1 | 1.45e-05 ± 6e-07 | 1103 ± 3.2 | 1.12e-05 ± 5e-07 | 1099.3 ± 3.3
